# Test results reported in ChEMBL document CHEMBL1649270, “ST-246 inhibits in vivo poxvirus dissemination, virus shedding, and systemic disease manifestation” (2009).
# Calls of active or inactive are those of the source. No cut-off for these calls is given here.
# Columns and labels:
# [1] = tested on: Vaccinia virus WR; experiment: Antiviral activity against Vaccinia virus WR ATCC VR-1354 infected through intraperitoneal route in BALB/c mouse assessed as reduction of viral load in brain at 100 mg/kg, po qd measured after 5 days postinfection by RT-PCR analysis relative to control; type: functional, organism-based; parameters: dose 100 mg/kg
# [2] = tested on: Vaccinia virus WR; experiment: Antiviral activity against Vaccinia virus WR ATCC VR-1354 in african green monkey BSC-40 cells infected with 7 day postinfection BAL fluid from 100 mg/kg, po qd compound treated BALB/c mouse infected through percutaneous route assessed as reduction of viral attachment to cells by plaque titration assay; type: functional
# [3] = tested on: Vaccinia virus WR; experiment: Antiviral activity against Vaccinia virus WR ATCC VR-1354 infected through intravenous route in BALB/c mouse assessed as protection against virus-induced systemic disease symptoms at 100 mg/kg, po qd measured after 9 days postinfection; type: functional, organism-based; parameters: dose 100 mg/kg
# [4] = tested on: Vaccinia virus WR; experiment: Antiviral activity against Vaccinia virus WR ATCC VR-1354 infected through subcutaneous route in BALB/c mouse assessed as protection against virus-induced systemic disease symptoms at 100 mg/kg, po qd measured after 9 days postinfection; type: functional, organism-based; parameters: dose 100 mg/kg
# [5] = tested on: Vaccinia virus WR; experiment: Antiviral activity against Vaccinia virus WR ATCC VR-1354 infected through subcutaneous route in BALB/c mouse assessed as protection against virus-induced conjunctivitis in mouse eyes at 100 mg/kg, po qd measured after 6 days postinfection; type: functional, organism-based; parameters: dose 100 mg/kg
# [6] = tested on: Vaccinia virus WR; experiment: Antiviral activity against Vaccinia virus WR ATCC VR-1354 infected through percutaneous route in BALB/c mouse assessed as reduction of viral load in lungs at 100 mg/kg, po qd measured after 3 days postinfection by RT-PCR analysis relative to control; type: functional
# [7] = tested on: Vaccinia virus WR; experiment: Antiviral activity against Vaccinia virus WR ATCC VR-1354 infected through percutaneous route in BALB/c mouse assessed as reduction of viral load in blood at 100 mg/kg, po qd measured after 3 days postinfection by RT-PCR analysis relative to control; type: functional
# [8] = tested on: Vaccinia virus WR; experiment: Antiviral activity against Vaccinia virus WR ATCC VR-1354 infected through percutaneous route in BALB/c mouse assessed as reduction of viral load in brain at 100 mg/kg, po qd measured after 3 days postinfection by RT-PCR analysis relative to control; type: functional
structure (smiles),measurement,setting,value
O=C(NN1C(=O)[C@@H]2[C@@H]3C=C[C@@H]([C@H]4C[C@@H]34)[C@@H]2C1=O)c1ccc(C(F)(F)F)cc1 [TECOVIRIMAT],Activity,[1],Active
same,fold change (FC),[2],528
same,Activity,[3],Active
same,Activity,[4],Active
same,Activity,[5],Active
same,fold change (FC),[6],4
same,fold change (FC),[7],8
same,fold change (FC),[8],1.78
